How the values were obtained:
[1] = system: PqsR (PqsR-controlled pqsA promoter, PA14 mCTX::PpqsA-lux); experiment: Bioluminescent reporter assay, PA14 mCTX::PpqsA-lux; assay type: cell-based; conditions: Pseudomonas aeruginosa, PA14, read-out: IC50 (μM) PA14 mCTX::PpqsA-lux
Description: An extensive SAR was performed on 6a to investigate the role of substitutions around various positions of the benzimidazole ring (groups R1–R3) as well as the aromatic tail (groups R4–R5) to fine-tune the potency of this series (6a–u) (Table 2). The activity of these analogues to inhibit the pqs QS system was evaluated in the PAO1-L and PA14 strains (that belong to the two major P. aeruginosa genomic lineages), both harboring a chromosomally integrated mCTX::PpqsA-lux transcriptional fusion to report for the activity of pqs system. Successful pharmacological blocking of AQ signal reception at the level of PqsR leads to a reduced transcription of the pqsA-lux genes and ultimately reduction in the luminescence readout.
Strains PA14 mCTX::PpqsA-lux and PAO1-L mCTX::PpqsA-lux were used to detect PqsR-controlled activation of the pqsA promoter, as previously described,[45] and the assay was performed according to a published method.[46] For initial screening, the compounds were tested at a concentration of 10 μM, which was prepared from a 10 mM stock, in DMSO.

PAO1-L biofilms = experiment: Biofilm viability assay, method 1 (ciprofloxacin, LIVE/DEAD, CLSM); assay type: cell-based, Pseudomonas aeruginosa; conditions: 6 and 24 h
Description: Biofilms are bacterial communities that are highly tolerant to antibiotics.[33] […] Therefore, pharmacological interference with the pqs machinery could sensitize PA biofilms to antibiotics.[34] To evaluate this effect, PAO1-L biofilms were grown for […] in the presence of 6f (method 1). Following treatment with the broad-spectrum antibiotic ciprofloxacin (Cip), the viability of biofilm bacteria was determined using LIVE/DEAD BacLight staining and confocal laser scanning microscopy (CLSM). The effect of 6f on biofilm viability as a single treatment or in combination with subinhibitory concentration of Cip was examined at two different time points (6 and 24 h after treatment) to establish whether this PqsR antagonist enhanced the activity of the antibiotic. […] It is noteworthy that the effect was greater at 6 h treatment compared with 24 h.
Figure 6 (A) Representative CLSM 3D Z-stack images of PAO1-L biofilms after 24 h growth with or without 6f and further treatment for 6 or 24 h with no treatment (control), 6f (10 μM), ciprofloxacin (Cip: 60 μg/mL), or a combination of 6f and Cip (10 μM and 60 μg/mL, respectively). Live bacteria are depicted in green (SYTO9 dye) and dead cells are shown in red color (propidium iodide stain). (B) Biofilm viability assay. Bar chart showing PAO1-L biofilm viability quantified after treatment with different conditions for 6 or 24 h. […]

[2] = system: A549 human lung epithelial carcinoma cell line; experiment: A549 cytotoxicity assay (resazurin / alamar blue); assay type: cell-based; conditions: at concentrations up to 100 μM (1, 50, 100 μM), 24 h
Description: Establishing the safety profile of new chemical entities is paramount for further drug development. […] The assay employed resazurin reduction, a sensitive fluorometric assay widely used as a standard methodology in drug discovery research.[35] This assay relies on the ability of living cells to reduce resazurin to the fluorescent compound, resorufin, which indicates the rate of the metabolic activity as a means to quantify cell viability.
Cell viability was assessed according to Nimesh et al.[51] on A549 adenocarcinomic human alveolar basal epithelial cell line. The viability of the A549 cell line was assessed after overnight incubation with three concentrations (1, 50, and 100 μM) of the corresponding compound using alamar blue (resazurin) dye. Cells were maintained in the Dulbecco’s Modified Essential Medium (DMEM) supplemented with 10% fetal bovine serum (FBS) and 1% penicillin–streptomycin–neomycin (PSN). After that, 100 μL of suspended cells with a final concentration (1 × 10^4 cells/wall) were seeded in 96-well plates with 100 μL of (1, 50, 100 μM) concentrations of the tested compound was dispensed in sextuplicate. […] The plates were further incubated for 4–6 h and the intensity of the fluorescence was measured using an excitation light of 510 nm and measuring the fluorescence output at 590 nm. The cell viability in each well was normalized to the DMSO reading.

CC(C)n1c(NCC(O)COc2ccc(CC#N)cc2)nc2ccc(Cl)cc21 (stereo not shown) [Compound 6f, 2-(4-(3-((6-Chloro-1-isopropyl-1H-benzo[d]imidazol-2-yl)amino)-2-hydroxypropoxy)phenyl) Acetonitrile]
IC50 [1]: 0.09 ± 0.01 µM | biofilm viability, combination with ciprofloxacin (PAO1-L biofilms; 6f 10 μM + Cip 60 μg/mL): significant potentiation of antibiotic activity | biofilm viability, single treatment (PAO1-L biofilms; 6f 10 μM alone): no significant effect | cytotoxicity for A549 cells [2]: not cytotoxic

— PMC10823468, “Design, Synthesis, and Evaluation of New 1H-Benzo[d]imidazole Based PqsR Inhibitors as Adjuvant Therapy for Pseudomonas aeruginosa Infections” (Journal of Medicinal Chemistry, 2024)
